In ChEMBL document CHEMBL4842387, “Discovery of a Series of Hydroxamic Acid-Based Microtubule Destabilizing Agents with Potent Antitumor Activity” (J Med Chem, 2021):

Test: Metabolic stability in human liver microsomes at 1 uM in presence of NADPH regenerating system measured up to 60 mins by UFLC-MS/MS analysis
Assay type: ADME, Microsome
Conditions: 1 h

Question: For COc1ccc(N(C)c2nc(C)nc3ccccc23)cc1OCC(=O)NO, which Stabilty is on record?
Answer: Unstable
